Data published in the NIST ThermoML archive (doi:10.1021/je900284z).
Where “and” joins values, the source holds several entries; their conditions need not be identical. Equal values may be shown once.

Details: Liquid; for viscosity: Falling or rolling sphere viscometry; for mass density: 101.33 kPa

CCCCC(CC)COC(=O)c1ccccc1C(=O)OCC(CC)CCCC (stereo not drawn) [bis(2-ethylhexyl) 1,2-benzenedicarboxylate]
Details	viscosity
273.15 K, 100 kPa	359.9 mPa·s and 359.7 mPa·s
273.15 K, 24100 kPa	680.7 mPa·s
283.15 K, 100 kPa	158 mPa·s and 158.6 mPa·s
283.15 K, 400 kPa	160.2 mPa·s
283.15 K, 20800 kPa	266.5 mPa·s
283.15 K, 41000 kPa	430.5 mPa·s
283.15 K, 60000 kPa	663.5 mPa·s
283.15 K, 80400 kPa	1034 mPa·s
283.15 K, 100100 kPa	1566 mPa·s
283.15 K, 123400 kPa	2473 mPa·s
298.15 K, 100 kPa	58.79 mPa·s and 57.58 mPa·s and 57.59 mPa·s
298.15 K, 600 kPa	59.35 mPa·s
298.15 K, 25800 kPa	103.4 mPa·s
298.15 K, 50000 kPa	167.4 mPa·s
298.15 K, 50900 kPa	174.2 mPa·s
298.15 K, 76300 kPa	287.8 mPa·s
298.15 K, 100500 kPa	455.2 mPa·s
298.15 K, 126600 kPa	730.7 mPa·s
298.15 K, 150400 kPa	1103 mPa·s
298.15 K, 174300 kPa	1631 mPa·s
298.15 K, 199800 kPa	2527 mPa·s
303.15 K, 100 kPa	44.29 mPa·s and 44.2 mPa·s and 43.49 mPa·s
310.93 K, 100 kPa	28.88 mPa·s [middle of 4 runs]
310.93 K, 47400 kPa	73.56 mPa·s
310.93 K, 75300 kPa	120.3 mPa·s
310.93 K, 99500 kPa	185.1 mPa·s
310.93 K, 148600 kPa	413.1 mPa·s
310.93 K, 176000 kPa	617.9 mPa·s
310.93 K, 201800 kPa	912.7 mPa·s
310.93 K, 223800 kPa	1259 mPa·s
310.93 K, 247800 kPa	1794 mPa·s
310.93 K, 250800 kPa	1819 mPa·s
310.93 K, 274000 kPa	2555 mPa·s
313.15 K, 100 kPa	26.6 mPa·s and 26.58 mPa·s
323.15 K, 100 kPa	17.17 mPa·s and 17.01 mPa·s and 17.1 mPa·s
323.15 K, 700 kPa	17.26 mPa·s
323.15 K, 10600 kPa	20.76 mPa·s
323.15 K, 25700 kPa	27.26 mPa·s
323.15 K, 50700 kPa	42.19 mPa·s
323.15 K, 75600 kPa	63.74 mPa·s
323.15 K, 100600 kPa	94.67 mPa·s
323.15 K, 125600 kPa	138.7 mPa·s
323.15 K, 150600 kPa	200.2 mPa·s
323.15 K, 175600 kPa	286.3 mPa·s
323.15 K, 200300 kPa	403.4 mPa·s
323.15 K, 223100 kPa	539 mPa·s
323.15 K, 252300 kPa	794.8 mPa·s
323.15 K, 276700 kPa	1055.1 mPa·s
323.15 K, 295400 kPa	1355.1 mPa·s
323.15 K, 323700 kPa	1952.3 mPa·s
333.15 K, 100 kPa	11.73 mPa·s and 11.71 mPa·s
343.15 K, 100 kPa	8.499 mPa·s and 8.51 mPa·s
348.15 K, 100 kPa	7.416 mPa·s and 7.422 mPa·s
348.15 K, 50800 kPa	15.52 mPa·s
348.15 K, 54100 kPa	16.45 mPa·s
348.15 K, 75900 kPa	22.09 mPa·s
348.15 K, 100800 kPa	30.91 mPa·s
348.15 K, 103500 kPa	32.17 mPa·s
348.15 K, 125800 kPa	42.61 mPa·s
348.15 K, 150800 kPa	58.12 mPa·s
348.15 K, 175700 kPa	78.72 mPa·s
348.15 K, 200700 kPa	105.6 mPa·s
348.15 K, 225500 kPa	140.4 mPa·s
348.15 K, 250300 kPa	185.6 mPa·s
348.15 K, 275000 kPa	243.8 mPa·s
348.15 K, 299100 kPa	316.7 mPa·s
348.15 K, 324100 kPa	412.7 mPa·s
348.15 K, 348100 kPa	529.4 mPa·s
348.15 K, 371000 kPa	669 mPa·s

Details	mass density [kg/m3]
273.15 K	998.82
278.15 K	995.01
283.15 K	991.26
293.15 K	983.87
298.15 K	980.15
303.15 K	976.42
313.15 K	968.98
323.15 K	961.53
333.15 K	954.11
343.15 K	946.68
353.15 K	939.27
363.15 K	931.85

CCCCC(CC)COC(=O)c1ccccc1 (stereo not drawn) [2-ethylhexyl benzoate]
Details	viscosity
263.15 K, 100 kPa	29.42 mPa·s and 29.39 mPa·s
268.15 K, 100 kPa	21.45 mPa·s and 21.43 mPa·s
273.15 K, 100 kPa	16.21 mPa·s and 16.22 mPa·s
273.15 K, 700 kPa	16.39 mPa·s
273.15 K, 14200 kPa	20.88 mPa·s
273.15 K, 16100 kPa	22.11 mPa·s
273.15 K, 29700 kPa	28.8 mPa·s
273.15 K, 45500 kPa	38.79 mPa·s
273.15 K, 47100 kPa	39.5 mPa·s
273.15 K, 60900 kPa	51.94 mPa·s
273.15 K, 81800 kPa	78.37 mPa·s
273.15 K, 102000 kPa	114.7 mPa·s
273.15 K, 110600 kPa	132.5 mPa·s
273.15 K, 149800 kPa	286.9 mPa·s
283.15 K, 100 kPa	10.07 mPa·s
293.15 K, 100 kPa	6.753 mPa·s and 6.756 mPa·s
298.15 K, 100 kPa	5.574 mPa·s and 5.529 mPa·s
298.15 K, 300 kPa	5.708 mPa·s
298.15 K, 900 kPa	5.771 mPa·s
298.15 K, 26000 kPa	8.4 mPa·s
298.15 K, 50900 kPa	12.07 mPa·s
298.15 K, 75600 kPa	17.19 mPa·s
298.15 K, 100800 kPa	24.58 mPa·s
298.15 K, 125500 kPa	34.9 mPa·s
298.15 K, 150900 kPa	49.92 mPa·s
298.15 K, 175100 kPa	70.34 mPa·s
298.15 K, 200700 kPa	101 mPa·s
298.15 K, 225200 kPa	143.1 mPa·s
298.15 K, 250700 kPa	206 mPa·s
303.15 K, 100 kPa	4.847 mPa·s
313.15 K, 100 kPa	3.641 mPa·s and 3.644 mPa·s and 3.646 mPa·s
323.15 K, 100 kPa	2.859 mPa·s and 2.857 mPa·s
323.15 K, 25900 kPa	3.952 mPa·s
323.15 K, 50900 kPa	5.32 mPa·s
323.15 K, 75800 kPa	7.088 mPa·s
323.15 K, 100600 kPa	9.368 mPa·s
323.15 K, 125700 kPa	12.33 mPa·s
323.15 K, 150400 kPa	16.17 mPa·s
323.15 K, 174800 kPa	20.75 mPa·s
323.15 K, 175600 kPa	21.33 mPa·s
323.15 K, 200800 kPa	28.03 mPa·s
323.15 K, 225600 kPa	36.82 mPa·s
323.15 K, 250400 kPa	48.19 mPa·s
323.15 K, 275200 kPa	62.86 mPa·s
323.15 K, 300000 kPa	82.18 mPa·s
323.15 K, 300100 kPa	82.04 mPa·s
333.15 K, 100 kPa	2.3 mPa·s
343.15 K, 100 kPa	1.834 mPa·s [middle of 5 runs]
348.15 K, 100 kPa	1.728 mPa·s and 1.73 mPa·s
348.15 K, 10800 kPa	1.956 mPa·s
348.15 K, 25400 kPa	2.3 mPa·s
348.15 K, 50800 kPa	2.994 mPa·s
348.15 K, 75900 kPa	3.826 mPa·s
348.15 K, 100800 kPa	4.842 mPa·s
348.15 K, 125700 kPa	6.009 mPa·s
348.15 K, 150700 kPa	7.634 mPa·s
348.15 K, 175700 kPa	9.511 mPa·s
348.15 K, 200700 kPa	11.85 mPa·s
348.15 K, 225700 kPa	14.77 mPa·s
348.15 K, 250500 kPa	18.23 mPa·s
348.15 K, 275300 kPa	22.56 mPa·s
348.15 K, 276300 kPa	22.83 mPa·s
348.15 K, 302300 kPa	28.48 mPa·s
348.15 K, 315200 kPa	31.58 mPa·s

Details	mass density [kg/m3]
273.15 K	981.12
278.15 K	977.18
283.15 K	973.25
288.15 K	969.32
293.15 K	965.4
298.15 K	961.49
303.15 K	957.57
313.15 K	949.73
323.15 K	941.92
333.15 K	934.11
343.15 K	926.28
353.15 K	918.45
363.15 K	910.61
